Biological target: T1, TYK2-JH2 (Homo sapiens, UniProt P29597)
T1 construct: TYK JH2 enzyme mix (ChemPartner: CP20210818A-BV); purchased ChemPartner CP20210818A-BV
Experiment: TYK2-JH2 HTRF binding assay (ligand efficiency)
Settings: calculated (Equation 1) from IC50 of the TYK-JH2 binding assay
Method: The following example describes the TYK2-JH2 HTRF binding assay used to determine the ligand efficiency of the TYK2 inhibitors.
To calculate ligand efficiency, Equation 1 is applied: […]
in which IC50 comes from the binding assay used to determine compound potency.
TYK JH2 enzyme mix (ChemPartner: CP20210818A-BV), tracer (ChemPartner: CP-0029472-051) and mAb Anti-6HIS Tb cryptate Gold (Cisbio: Cat No. 61HI2TLA) mix were prepared in assay buffer (10 mM MgCl2, 20 mM HEPES pH 7.5, 0.01% Triton X-100, 1 mM DTT). Compounds diluted in DMSO (Final Concentrations 0.1 to 0.000005 [μM]) and enzyme mix (0.5 nM Final Concentration) were added to 384 well plates, briefly centrifuged and incubated at room temperature for 10 minutes. After incubation, tracer mix (Tracer-35 nM final concentration); (MAb Anti-6HIS Tb cryptate Gold-0.5X final)) was added, briefly centrifuged then incubate at room temperature 60 minutes. After incubation, plates were read by Envision TR-FRET (Ex340/Em495/520) protocol (PerkinElmer-Envision 2104 multilabel plate reader).

T1 sequence (P29597 589-875 limits assumed): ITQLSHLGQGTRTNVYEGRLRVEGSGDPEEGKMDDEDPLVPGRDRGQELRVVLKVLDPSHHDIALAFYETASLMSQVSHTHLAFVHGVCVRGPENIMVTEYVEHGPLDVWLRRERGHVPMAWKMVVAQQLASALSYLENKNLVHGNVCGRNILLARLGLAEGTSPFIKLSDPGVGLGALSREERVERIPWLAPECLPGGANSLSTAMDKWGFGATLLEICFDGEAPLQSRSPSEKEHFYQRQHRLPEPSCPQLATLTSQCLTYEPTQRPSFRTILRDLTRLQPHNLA

| SMILES | Ligand Efficiency |
| --- | --- |
| Cc1nccc(Nc2cc(Nc3ccccc3C(N)=O)ncn2)n1 [Compound 48, 2-((6-((2-methylpyrimidin-4-yl)amino)pyrimidin-4-yl)amino)benzamide] | ††† (†††: >0.39) |
| CC(NC1CC(F)(F)C1)c1ccc(Nc2cc(Nc3ncccc3S(C)(=O)=O)ncn2)nc1 (stereo not shown) [Compound 35, N^4-(5-(1-(3,3-difluorocyclobutylamino)ethyl)pyridin-2-yl)-N^6-(3-(methylsulfonyl)pyridin-2-yl)pyrimidine-4,6-diamine] | ††† (†††: >0.39) |
| Cc1cccc(Nc2cc(Nc3ccccc3NS(C)(=O)=O)ncn2)n1 [Compound 53, N-(2-(6-(6-methylpyridin-2-ylamino)pyrimidin-4-ylamino)phenyl) methanesulfonamide] | ††† (†††: >0.39) |
| CC(NC1COC1)c1ccc(Nc2cc(Nc3ccccc3S(C)(=O)=O)ncn2)nc1 (stereo in doubt) [Compound 40, (R)—N^4-(2-(methylsulfonyl)phenyl)-N^6-(5-(1-(oxetan-3-ylamino)ethyl)pyridin-2-yl)pyrimidine-4,6-diamine] | ††† (†††: >0.39) |
| Cc1cccnc1Nc1cc(Nc2ccccc2C(N)=O)ncn1 [Compound 68, 2-((6-((3-methylpyridin-2-yl)amino)pyrimidin-4-yl)amino)benzamide] | ††† (†††: >0.39) |
| COc1ccc(Nc2cc(NC(=O)C3CC3)ncn2)c(C(N)=O)c1 [Compound 70, 2-((6-(cyclopropanecarboxamido)pyrimidin-4-yl)amino)-5-methoxy benzamide] | ††† (†††: >0.39) |
| Cc1ccnc(Nc2cc(Nc3ccccc3C(N)=O)ncn2)n1 [Compound 58, 2-(6-(4-methylpyrimidin-2-ylamino)pyrimidin-4-ylamino)benzamide] | ††† (†††: >0.39) |
| CS(=O)(=O)c1cccnc1Nc1cc(Nc2ccc(C(=O)NC3CC(F)(F)C3)cn2)ncn1 [Compound 38, N-(3,3-difluorocyclobutyl)-6-(6-(3-(methylsulfonyl)pyridine-2-ylamino)pyrimidin-4-ylamino) nicotinamide] | ††† (†††: >0.39) |
| Cc1cccc(Nc2cc(Nc3ccccc3S(C)(=O)=O)nc(N)n2)n1 [Compound 57, N^4-(6-methylpyridin-2-yl)-N^6-(2-(methylsulfonyl)phenyl)pyrimidine-2,4,6-triamine] | ††† (†††: >0.39) |
| Cc1cccc(Nc2cc(Nc3ccccc3C(N)=O)ncn2)n1 [Compound 46] | ††† (†††: >0.39) |
| Cc1cccc(Nc2cc(Nc3ccccc3S(C)(=O)=O)nc(C)n2)n1 [Compound 56, 2-methyl-N^4-(6-methylpyridin-2-yl)-N^6-(2-(methylsulfonyl)phenyl)pyrimidine-4,6-diamine] | † (†: <0.37) |
| COc1ccnc(Nc2cc(Nc3cccc(C)n3)ncn2)c1S(C)(=O)=O [Compound 65, N^4-(4-methoxy-3-(methylsulfonyl)pyridin-2-yl)-N^6-(6-methylpyridin-2-yl)pyrimidine-4,6-diamine] | ††† (†††: >0.39) |
| C[C@@H](c1ccc(Nc2cc(Nc3ncc(Cl)cc3S(C)(=O)=O)ncn2)nc1)N1CC2(COC2)C1 [Compound 14, (S)—N^4-(5-(1-(2-oxa-6-azaspiro[3.3]heptan-6-yl)ethyl)pyridin-2-yl)-N^6-(5-chloro-3-(methylsulfonyl)pyridin-2-yl)pyrimidine-4,6-diamine] | ††† (†††: >0.39) |
| Cc1cccc(Nc2cc(Nc3ncccc3CS(C)(=O)=O)ncn2)n1 [Compound 71, N^4-(6-methylpyridin-2-yl)-N^6-(3-((methylsulfonyl)methyl)pyridin-2-yl)pyrimidine-4,6-diamine] | ††† (†††: >0.39) |
| CS(=O)(=O)c1ccccc1Nc1cc(Nc2ccc3c(n2)CCCC3N2CC3(CCOCC3)C2)ncn1 (stereo not shown) [Compound 27, N^4-(5-(7-oxa-2-azaspiro[3.5]nonan-2-yl)-5,6,7,8-tetrahydroquinolin-2-yl)-N^6-(2-(methylsulfonyl)phenyl)pyrimidine-4,6-diamine] | † (†: <0.37) |
| C[C@H]1COCCN1c1ccc(Nc2cc(Nc3ccccc3S(C)(=O)=O)ncn2)nc1 [Compound 54, (S)—N^4-(5-(3-methylmorpholino)pyridin-2-yl)-N^6-(2-(methylsulfonyl)phenyl)pyrimidine-4,6-diamine] | † (†: <0.37) |
| CS(=O)(=O)c1ccccc1Nc1cc(NC(=O)C2CC2)ncn1 [Compound 69, N^4-(cyclopropylcarbonyl)-N^6-(2-(methylsulfonyl)phenyl)pyrimidine-4,6-diamine] | ††† (†††: >0.39) |
| Cc1cccc(Nc2cc(Nc3ccncc3C(N)=O)ncn2)n1 [Compound 51, 4-((6-((6-methylpyridin-2-yl)amino)pyrimidin-4-yl)amino) nicotinamide] | ††† (†††: >0.39) |
| Cn1ccc(Nc2cc(Nc3ccccc3C(N)=O)ncn2)n1 [Compound 67, 2-((6-((1-methyl-1H-pyrazol-3-yl)amino)pyrimidin-4-yl)amino)benzamide] | ††† (†††: >0.39) |
| CS(=O)(=O)c1ccccc1Nc1cc(Nc2ccc(NC3COC3)cn2)ncn1 [Compound 80, N^4-(2-(methylsulfonyl)phenyl)-N^6-(5-(oxetan-3-ylamino)pyridin-2-yl)pyrimidine-4,6-diamine] | † (†: <0.37) |
| CS(=O)(=O)c1cccnc1Nc1cc(Nc2ccc3c(n2)CC[C@@H]3N2CC3(COC3)C2)ncn1 [Compound 9, N^4-((5S)-5-(2-oxa-6-azaspiro[3.3]heptan-6-yl)-6,7-dihydro-5H-cyclopenta[b]pyridin-2-yl)-N^6-(3-(methylsulfonyl)pyridin-2-yl)pyrimidine-4,6-diamine] | ††† (†††: >0.39) |
| Cc1cccc(Nc2cc(Nc3cccnc3S(C)(=O)=O)ncn2)n1 [Compound 59, N^4-(6-methylpyridin-2-yl)-N^6-(2-(methylsulfonyl)pyridin-3-yl)pyrimidine-4,6-diamine] | ††† (†††: >0.39) |
| Cc1cnnc(Nc2cc(Nc3ccccc3C(N)=O)ncn2)c1 [Compound 47, 2-((6-((5-methylpyridazin-3-yl)amino)pyrimidin-4-yl)amino)benzamide] | ††† (†††: >0.39) |
| CC(c1ccc(Nc2cc(Nc3ncccc3S(C)(=O)=O)ncn2)nc1)N1CC2(CC(F)C2)C1 (stereo in doubt) [Compound 10, N^4-(5-((1R)-1-(6-fluoro-2-azaspiro[3.3]heptan-2-yl)ethyl)pyridin-2-yl)-N^6-(3-(methylsulfonyl)pyridin-2-yl)pyrimidine-4,6-diamine] | ††† (†††: >0.39) |
| CC(c1ccc(Nc2ncnc(Nc3ncccc3S(C)(=O)=O)c2F)nc1)N1CC2(COC2)C1 (stereo not shown) [Compound 75, N^4-(5-(1-(2-oxa-6-azaspiro[3.3]heptan-6-yl)ethyl)pyridin-2-yl)-5-fluoro-N^6-(3-(methylsulfonyl)pyridin-2-yl)pyrimidine-4,6-diamine] | † (†: <0.37) |

— patent US20240425484A1, “INHIBITORS OF TYK2” (Atomwise Inc., priority 2023, published 2024)
